# Measurements from PMC6946680, “Modulation of brain cation-Cl^− cotransport via the SPAK kinase inhibitor ZT-1a” (Nature Communications, 2020).
# Values joined by “and” are separate entries in the source; they are usually repeats but may differ in a detail not shown here. Equal entries are not always repeated.
# Assays:
# pJNK = assay: Immunoblot of phospho-JNK in ischemic mouse brain; assay type: in vivo; conditions: ZT-1a 5.0 mg/kg
# Text: Cytosol and crude membrane protein
# Expressions of Na+-K+ ATPase
# respectively. d Densitometric analyses of immunoblots.
# pNKCC1 (pThr203/207/212) = assay: Immunoblot of pNKCC1 in ischemic mouse brain membrane fractions; conditions: for NKCC1 / Na-K pumb / pThr203/207/212 / NKCC1: Fig 8, individual samples
# KCC3 pThr1048 = assay: Immunoblot of KCC site 2 phosphorylation (KCC3 Thr1048) in HEK-293 cells transfected with FLAG-KCC3; assay type: cell-based, human; conditions: for T1007/KCC2 band intensity ratio: single replicates
# tSPAK tOSR1 = assay: Immunoblot of total SPAK/OSR1 in ischemic mouse brain membrane and cytosol fractions; assay type: in vivo; conditions: Membrane, single samples
# Text: Supplement 41467_2019_13851_MOESM4_ESM.zip/Source Data.xlsx, sheet "Fig S11b and c" | column: tSPAK tOSR1/Na K pump (fold veh-CL)
# [1] = system: pSPAK (pSer373)/pOSR1 (pSer325); assay: Immunoblot of pSPAK/pOSR1 in ischemic mouse brain membrane fractions; conditions: for SPAK / Na-K pumb / pSer373 / SPAK: Fig 8, individual samples; for pSPAK pOSR1/Na K pump (fold veh-CL): Membrane, single samples
# human fibroblast cells = assay: Cell volume measurement (calcein-AM) under hyperosmotic stress, human fibroblasts; conditions: hypertonic 515 mOsm; BMT or ZT-1a
# KCC3 pThr991/pThr1048 = assay: Choroid plexus KCC3 phospho-IP/immunoblot in rat IVH model; assay type: in vivo
# SPAK phosphorylation = assay: Pharmacodynamic study, SPAK phosphorylation in brain of naive mice; assay type: in vivo, mouse; conditions: Fig S8a (brain)
# Procedure: To define ZT-1a efficacy in naive mice in vivo, we examined phosphorylation of SPAK, NKCC1, and NCC in kidney, and phosphorylation of SPAK, NKCC1, and KCC3 in brain, after intraperitoneal (i.p.) administration of either ZT-1a (10, 30, 50, and 100 mg/kg) or Closantel (50 mg/kg as a reference). […]
# 5. Pharmacodynamic (PD) study
# Male C57BL/6j wild-type mice (6 weeks old, Charles River Laboratories Edinburgh UK) were treated with ZT-1a (in DMSO, Sigma) by subcutaneous injection at doses of 0, 3, 10, 30, 50 and 100 mg/kg. 50 mg/kg Closantel was administered as a comparative control. Vehicle control mice were treated with an equal volume of DMSO solution. One hour after administration, mice were sacrificed by cervical dislocation, and kidney and brain tissues were rapidly dissected and snap-frozen in liquid nitrogen. Age- […]
# free conditions at the University of Dundee (UK) as described in our recent study1. Animal experiments and breeding were approved by the University of Dundee ethical committee and performed under a […]
# Policy on the Care, Welfare and Treatment of Animals, and regulations set by the University of Dundee and the U.K. Home Office. […]
# Brain and kidney tissues were collected at 60 min post injection, and proteins subjected to immunoblot were probed with antibodies specific for phosphorylated forms of SPAK,
# KCC3 = assay: Immunoblot of total KCC3 / Actin in HEK-293 cells transfected with FLAG-KCC3; assay type: cell-based, human; conditions: Fig S4b
# [2] = compared with vehicle-control mice
# [3] = post-stroke ZT-1a 5 mg/kg, 24 h reperfusion
# [4] = rat CPe 48 h post IVH + 1a, replicates
compound,measurement,setting,value
"Cc1cc(C(C#N)c2ccc(Cl)cc2)c(Cl)cc1NC(=O)c1cc(Cl)ccc1O (centres unmarked) [ZT-1a, 5-chloro-N-(5-chloro-4-((4-chlorophenyl)(cyano)methyl)-2-methylphenyl)-2-hydroxybenzamide]",p-JNK in ischemic brains,pJNK,no marked inhibition
same,NKCC1 / Na-K pumb,pNKCC1 (pThr203/207/212); CL hemisphere,1.613 and 1.481 and 1.6 and 1.576 and 1.424 and 1.642
same,pThr203/207/212 / NKCC1,pNKCC1 (pThr203/207/212); CL hemisphere,0.451 and 0.437 and 0.265 and 0.378 and 0.429 and 0.303
same,NKCC1 / Na-K pumb,pNKCC1 (pThr203/207/212); IL hemisphere,1.43 and 1.528 and 1.481 and 1.417 and 1.587 and 1.394
same,pThr203/207/212 / NKCC1,pNKCC1 (pThr203/207/212); IL hemisphere,0.461 and 0.418 and 0.385 and 0.452 and 0.396 and 0.372
same,reduction of ischemia-induced elevation of pNKCC1,pNKCC1 (pThr203/207/212); [2],55–65%
same,ischemia-induced increase of pNKCC1,pNKCC1 (pThr203/207/212); [3],prevented
same,T1007/KCC2 band intensity ratio,"KCC3 pThr1048; Hypotonic low Cl, 1 uM",0.223 and 0.282 and 0.213 and 0.243
same,T1007/KCC2 band intensity ratio,"KCC3 pThr1048; Hypotonic low Cl, 3 uM",0.041 and 0.093 and 0.036 and 0.063
same,T1007/KCC2 band intensity ratio,"KCC3 pThr1048; Hypotonic low Cl, 10 uM",0.027 and 0.033 and 0.023 and 0.03
same,T1007/KCC2 band intensity ratio,"KCC3 pThr1048; Isotonic control, 1 uM",0.174 and 0.099 and 0.126 and 0.132
same,T1007/KCC2 band intensity ratio,"KCC3 pThr1048; Isotonic control, 3 uM",0.134 and 0.118 and 0.103 and 0.121
same,T1007/KCC2 band intensity ratio,"KCC3 pThr1048; Isotonic control, 10 uM",0.09 and 0.069 and 0.044 and 0.053
same,KCC3 pThr1048 / KCC3,"KCC3 pThr1048; ZT-1a 1 uM, Fig S4b",0.35 and 0.401 and 0.302 and 0.261
same,tSPAK tOSR1/Na K pump (fold veh-CL),tSPAK tOSR1,0.93 fold veh-CL and 1.11 fold veh-CL and 1.70 fold veh-CL and 1.17 fold veh-CL and 1.58 fold veh-CL
same,SPAK / Na-K pumb,[1]; CL hemisphere,0.981 and 0.854 and 0.987 and 1.037 and 0.972 and 0.893
same,pSer373 / SPAK,[1]; CL hemisphere,1.177 and 1.25 and 1.197 and 1.217 and 1.153 and 1.09
same,SPAK / Na-K pumb,[1]; IL hemisphere,0.919 and 0.978 and 0.855 and 0.931 and 0.95 and 0.819
same,pSer373 / SPAK,[1]; IL hemisphere,0.773 and 0.739 and 0.598 and 0.674 and 0.62 and 0.668
same,pSPAK pOSR1/Na K pump (fold veh-CL),[1]; CL,1.23 fold veh-CL and 0.84 fold veh-CL and 1.17 fold veh-CL and 1.58 fold veh-CL and 1.64 fold veh-CL
same,pSPAK pOSR1/Na K pump (fold veh-CL),[1]; IL,1.24 fold veh-CL and 0.94 fold veh-CL and 0.88 fold veh-CL and 1.08 fold veh-CL and 0.87 fold veh-CL
same,reduction of ischemia-induced elevation of pSPAK,[1]; [2],55–65%
same,ischemia-induced increase of pSPAK/pOSR1,[1]; [3],prevented
same,regulatory volume increase (RVI) in human fibroblast cells,human fibroblast cells,absence of RVI
same,KCC3 pThr991 / Actin,KCC3 pThr991/pThr1048; [4],0.089 and 0.127 and 0.217 and 0.096 and 0.114 and 0.223
same,KCC3 pThr1048 / Actin,KCC3 pThr991/pThr1048; [4],0.504 and 0.573 and 0.821 and 0.586 and 0.633 and 0.872
same,reduction of post-IVH KCC3 phosphorylation at Thr991,"KCC3 pThr991/pThr1048; rat CPe, ICV ZT-1a",6 fold
same,reduction of post-IVH KCC3 phosphorylation at Thr1048,"KCC3 pThr991/pThr1048; rat CPe, ICV ZT-1a",2.1 fold
same,pSer373 / SPAK,SPAK phosphorylation; 10 mg/kg,0.64 and 0.68 and 0.52 and 0.61
same,pSer373 / SPAK,SPAK phosphorylation; 30 mg/kg,0.55 and 0.6 and 0.56 and 0.52
same,pSer373 / SPAK,SPAK phosphorylation; 50 mg/kg,0.56 and 0.65 and 0.61 and 0.53
same,pSer373 / SPAK,SPAK phosphorylation; 100 mg/kg,0.67 and 0.54 and 0.58 and 0.5
same,KCC3 / Actin,KCC3; ZT-1a 0.3 uM,2.04 and 1.923 and 2.091 and 1.84
same,KCC3 / Actin,KCC3; ZT-1a 1 uM,1.85 and 1.949 and 1.921 and 1.782
same,KCC3 / Actin,KCC3; ZT-1a 3 uM,1.87 and 1.905 and 1.972 and 1.73
